# According to ChEMBL document CHEMBL1201862, “PubChem BioAssay data set” (2004):
# Calls of active or inactive are those of the source.
# Tests used:
# HEK293 [1] = assay: cells; settings: Homo sapiens
# [2] = target: T1, Nucleotide-binding oligomerization domain-containing protein 1 (Homo sapiens, UniProt Q9Y239); assay: NOD1 signaling inhibitors, SAR follow-up, revised (AID 2333); type: functional
# T1 sequence (Q9Y239 whole entry): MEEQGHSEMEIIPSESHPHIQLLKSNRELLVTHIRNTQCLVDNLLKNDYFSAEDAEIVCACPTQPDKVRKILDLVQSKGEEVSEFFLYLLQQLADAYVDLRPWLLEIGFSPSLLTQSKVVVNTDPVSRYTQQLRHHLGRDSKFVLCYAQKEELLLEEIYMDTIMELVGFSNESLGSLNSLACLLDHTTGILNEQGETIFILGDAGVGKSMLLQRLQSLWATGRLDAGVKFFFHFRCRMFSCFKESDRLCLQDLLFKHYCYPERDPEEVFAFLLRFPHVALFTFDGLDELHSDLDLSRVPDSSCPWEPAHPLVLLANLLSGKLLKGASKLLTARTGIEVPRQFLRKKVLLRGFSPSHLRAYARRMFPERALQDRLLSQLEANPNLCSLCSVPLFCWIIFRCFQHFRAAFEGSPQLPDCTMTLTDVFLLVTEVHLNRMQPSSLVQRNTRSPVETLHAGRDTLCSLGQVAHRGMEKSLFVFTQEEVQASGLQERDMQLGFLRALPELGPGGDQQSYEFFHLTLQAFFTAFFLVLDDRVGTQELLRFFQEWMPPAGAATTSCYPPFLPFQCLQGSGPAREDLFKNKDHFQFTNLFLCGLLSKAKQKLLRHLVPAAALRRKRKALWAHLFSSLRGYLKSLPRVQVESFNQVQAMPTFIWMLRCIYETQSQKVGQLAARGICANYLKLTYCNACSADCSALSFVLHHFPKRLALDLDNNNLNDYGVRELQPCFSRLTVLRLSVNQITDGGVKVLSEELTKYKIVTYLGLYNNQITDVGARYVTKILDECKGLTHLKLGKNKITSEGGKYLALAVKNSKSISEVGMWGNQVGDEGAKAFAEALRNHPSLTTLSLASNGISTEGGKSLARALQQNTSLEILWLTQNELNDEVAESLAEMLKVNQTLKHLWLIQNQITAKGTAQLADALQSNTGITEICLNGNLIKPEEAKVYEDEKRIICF
# Tumor necrosis factor = Tumor necrosis factor (Homo sapiens, UniProt P01375); assay: TNFa-triggered NF-kB activation inhibitors, SAR follow-up, cell-based, revised (AID 2337); type: functional
# [3] = nonselective inhibitors of cellular cAMP signaling, dose response, counter-screen for MC4R biased antagonist project, cell-based, TR-FRET cAMP detection (AID 602305); type: functional;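 further: U2OS cells stimulated with forskolin near its EC80 as the cAMP inducer; potency is for inhibition of forskolin-stimulated cAMP signaling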
# Melanocortin receptor 4 = Melanocortin receptor 4 (Homo sapiens, UniProt P32245); assay: MC4R antagonist potency on cAMP, dose response, cell-based, TR-FRET, biased antagonists (AID 602298); type: functional;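 further: antagonist potency against agonist-stimulated cAMP production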
# [4] = target: Peroxisome proliferator-activated receptor gamma/Nuclear receptor coactivator 2 (Homo sapiens, UniProt P37231); assay: (§1) TR-FRET dose response biochemical High Throughput Screening assay for agonists of the steroid receptor coactivator 2 (SRC-2) recruitment by the peroxisome proliferator-activated receptor gamma (PPAR gamma): non-selective agonists. [Related pubchem assays: 1297, 1032 ]; type: functional
# [5] = target: Peroxisome proliferator-activated receptor gamma/Nuclear receptor coactivator 3 (Homo sapiens, UniProt P37231); assay: as §1, with “3 (SRC-3)” for “2 (SRC-2)”, “1301 (Confirmation screen.), 1048 (Primary screen.)]” for “1297, 1032 ]”; type: functional
# [6] = target: Peroxisome proliferator-activated receptor gamma/Nuclear receptor coactivator 1 (Homo sapiens, UniProt P37231); assay: as §1, with “1 (SRC-1)” for “2 (SRC-2)”, “assays (depositor defined):AID1300, AID1808, AID504735, AID631]” for “assays: 1297, 1032 ]”; type: protein assay
# HEK293 [7] = assay: cells; settings: Homo sapiens; remark: listed apart in the source
# [8] = inhibitors of intracellular T. cruzi replication, confirmation, NIH3T3 host cells, beta-gal luminescence (AID 2044); type: functional, cell-based;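 further: intracellular parasites grown in NIH/3T3 mouse fibroblasts as host cells; luminescent beta-galactosidase reporter signal from transgenic T. cruzi replicating inside host cells; inhibitors lower the luminescence signal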
# HEK293 [9] = assay: cells; settings: Homo sapiens; remark: listed apart in the source
# [10] = cytotoxicity toward NIH3T3 fibroblasts, dose response, counter-screen, cell-based, ATP luminescence, mouse fibroblasts (AID 2010); type: functional;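 further: cells exposed to compound for about 90 hours before reading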
# [11] = target: Glyceraldehyde-3-phosphate dehydrogenase (Homo sapiens, UniProt P04406)
# [12] = target: T2, Alkaline phosphatase, tissue-nonspecific isozyme (Homo sapiens, UniProt P05186); assay: human TNAP enzyme inhibitors, SAR follow-up, biochemical, luminescent, dose response (AID 1056)
# T2 sequence (P05186 whole entry): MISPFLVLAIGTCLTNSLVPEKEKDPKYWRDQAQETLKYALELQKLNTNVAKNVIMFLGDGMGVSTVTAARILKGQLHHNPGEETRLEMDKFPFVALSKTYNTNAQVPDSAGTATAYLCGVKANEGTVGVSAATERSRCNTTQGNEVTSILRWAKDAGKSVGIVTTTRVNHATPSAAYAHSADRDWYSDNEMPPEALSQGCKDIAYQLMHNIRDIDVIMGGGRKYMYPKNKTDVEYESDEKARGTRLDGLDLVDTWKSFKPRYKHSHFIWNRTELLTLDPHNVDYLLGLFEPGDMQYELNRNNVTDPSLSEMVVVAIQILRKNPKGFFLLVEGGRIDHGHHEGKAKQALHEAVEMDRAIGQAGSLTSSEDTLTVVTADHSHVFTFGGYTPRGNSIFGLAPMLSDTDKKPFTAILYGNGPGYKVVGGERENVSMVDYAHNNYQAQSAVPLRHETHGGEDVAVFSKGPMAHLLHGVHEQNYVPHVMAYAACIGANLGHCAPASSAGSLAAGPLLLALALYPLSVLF
# Cysteine protease ATG4B = target: T3, Cysteine protease ATG4B (Homo sapiens, UniProt Q9Y4P1); type: functional;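 further: Fluorescence-based dose-response confirmation assay measuring inhibition of ATG4B activity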
# T3 sequence (Q9Y4P1 whole entry): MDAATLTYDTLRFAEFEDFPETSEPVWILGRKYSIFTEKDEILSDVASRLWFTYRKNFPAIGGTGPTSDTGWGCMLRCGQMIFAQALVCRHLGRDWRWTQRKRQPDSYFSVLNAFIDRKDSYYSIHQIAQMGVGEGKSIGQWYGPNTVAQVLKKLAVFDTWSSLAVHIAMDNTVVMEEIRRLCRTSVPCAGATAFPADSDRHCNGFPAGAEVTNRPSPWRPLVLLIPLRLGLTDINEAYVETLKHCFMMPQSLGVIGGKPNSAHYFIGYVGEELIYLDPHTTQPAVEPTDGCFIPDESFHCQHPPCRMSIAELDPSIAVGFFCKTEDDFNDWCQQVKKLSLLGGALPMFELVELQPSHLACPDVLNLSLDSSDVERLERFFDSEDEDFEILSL
# Phospholipase A2 = Phospholipase A2 (Homo sapiens, UniProt P04054); type: functional;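 further: confirmatory dose-response counterscreen on phospholipase A2, testing hits that came from an ultra-high-throughput screen for ATG4B inhibitors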
# [13] = target: T4, Endoribonuclease toxin MazF (Escherichia coli K-12, UniProt P0AE70); assay: MazF toxin RNase activators, dose response, biochemical, fluorescence, single-stranded RNA substrate, uHTS hits (AID 588481); type: functional
# T4 sequence (P0AE70 whole entry): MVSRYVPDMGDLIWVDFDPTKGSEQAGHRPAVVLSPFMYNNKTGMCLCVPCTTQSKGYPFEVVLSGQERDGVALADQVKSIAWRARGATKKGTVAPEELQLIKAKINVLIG
# [14] = target: T4, Endoribonuclease toxin MazF; assay: fluorescent RNA oligo signal without MazF, dose response, counter-screen for MazEF activator project, biochemical, fluorescence, single-stranded RNase substrate (AID 588502); type: functional
# [15] = target: T5, High affinity choline transporter 1 (Homo sapiens, UniProt Q9GZV3); assay: CHT inhibitors, dose response, cell-based, 5-point CRC, membrane potential dye (AID 504840); type: functional
# T5 sequence (Q9GZV3 whole entry): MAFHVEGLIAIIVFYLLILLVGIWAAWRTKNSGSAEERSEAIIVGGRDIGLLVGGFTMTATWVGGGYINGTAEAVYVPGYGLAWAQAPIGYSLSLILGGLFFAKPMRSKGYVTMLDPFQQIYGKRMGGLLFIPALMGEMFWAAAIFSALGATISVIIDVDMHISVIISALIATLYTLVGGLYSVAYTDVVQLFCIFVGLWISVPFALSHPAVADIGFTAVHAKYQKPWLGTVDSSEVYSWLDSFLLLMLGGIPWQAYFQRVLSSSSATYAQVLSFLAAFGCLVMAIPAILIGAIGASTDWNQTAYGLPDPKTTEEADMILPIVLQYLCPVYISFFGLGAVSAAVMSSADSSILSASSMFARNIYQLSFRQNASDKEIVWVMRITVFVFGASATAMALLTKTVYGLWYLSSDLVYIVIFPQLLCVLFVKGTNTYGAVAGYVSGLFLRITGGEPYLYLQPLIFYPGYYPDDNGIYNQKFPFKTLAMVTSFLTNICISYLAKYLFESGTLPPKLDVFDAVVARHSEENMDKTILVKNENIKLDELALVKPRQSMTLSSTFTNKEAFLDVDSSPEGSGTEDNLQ
# [16] = growth suppression of PTEN-null colon cells, dose response, cell-based, HCT116 PTEN knockout (AID 1047); type: functional;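 further: HCT116 colon tumor cells with PTEN knocked out; cells exposed to compound for 60 hours before readout; potency for loss of cell viability measured by luminescence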
# [17] = target: T6, Heat shock factor protein 1 (Mus musculus, UniProt P38532); assay: HSF1 potentiators in luciferase reporter cells, confirmation, cell-based, NIH3T3, luminescence, dose retest (AID 435004); type: functional;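 further: stress induced by proteasome inhibitor MG132 added 30 min after compound; luciferase reporter driven by HSF1 response element in NIH3T3 cells; actives raise luminescence as potentiators of the MG132 stress response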
# T6 sequence (P38532 whole entry): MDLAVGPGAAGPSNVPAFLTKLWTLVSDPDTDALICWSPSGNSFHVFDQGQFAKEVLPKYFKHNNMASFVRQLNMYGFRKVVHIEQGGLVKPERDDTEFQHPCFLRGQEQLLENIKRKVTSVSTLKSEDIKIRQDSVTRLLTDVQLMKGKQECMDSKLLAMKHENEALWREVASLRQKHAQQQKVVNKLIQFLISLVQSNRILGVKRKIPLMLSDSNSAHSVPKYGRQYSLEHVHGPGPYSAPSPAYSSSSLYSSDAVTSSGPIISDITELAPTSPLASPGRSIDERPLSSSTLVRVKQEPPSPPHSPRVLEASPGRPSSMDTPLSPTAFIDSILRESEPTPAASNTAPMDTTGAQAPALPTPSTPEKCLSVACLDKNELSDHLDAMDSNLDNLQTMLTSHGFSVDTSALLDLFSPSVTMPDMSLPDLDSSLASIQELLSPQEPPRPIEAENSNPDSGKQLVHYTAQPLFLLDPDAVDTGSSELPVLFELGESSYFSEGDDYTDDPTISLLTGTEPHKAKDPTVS
# [18] = growth suppression of beta-catenin-knockout colon cells, dose response, cell-based, HCT116, human colon tumor (AID 1045); type: functional;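 further: HCT116 colon tumor cells with beta catenin knocked out; cells exposed to compound for 60 hours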
# Chain of Melanocortin receptor 4 (P32245 whole entry): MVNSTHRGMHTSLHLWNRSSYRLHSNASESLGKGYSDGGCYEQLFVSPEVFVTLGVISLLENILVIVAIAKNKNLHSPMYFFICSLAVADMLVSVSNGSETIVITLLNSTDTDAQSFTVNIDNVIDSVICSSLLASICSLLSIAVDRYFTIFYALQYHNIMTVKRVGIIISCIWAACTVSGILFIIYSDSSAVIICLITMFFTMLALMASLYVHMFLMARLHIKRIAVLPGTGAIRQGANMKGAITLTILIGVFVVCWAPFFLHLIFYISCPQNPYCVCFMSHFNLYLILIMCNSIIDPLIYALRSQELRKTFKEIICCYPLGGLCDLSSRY
# Chain of Tumor necrosis factor (P01375 whole entry): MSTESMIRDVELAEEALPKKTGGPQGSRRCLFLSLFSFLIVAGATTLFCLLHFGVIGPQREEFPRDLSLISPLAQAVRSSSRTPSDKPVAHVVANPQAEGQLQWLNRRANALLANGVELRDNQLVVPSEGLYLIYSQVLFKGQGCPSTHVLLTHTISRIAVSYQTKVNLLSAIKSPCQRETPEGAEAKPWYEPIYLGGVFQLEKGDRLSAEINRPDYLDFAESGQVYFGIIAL
# Chain of Glyceraldehyde-3-phosphate dehydrogenase (P04406 whole entry): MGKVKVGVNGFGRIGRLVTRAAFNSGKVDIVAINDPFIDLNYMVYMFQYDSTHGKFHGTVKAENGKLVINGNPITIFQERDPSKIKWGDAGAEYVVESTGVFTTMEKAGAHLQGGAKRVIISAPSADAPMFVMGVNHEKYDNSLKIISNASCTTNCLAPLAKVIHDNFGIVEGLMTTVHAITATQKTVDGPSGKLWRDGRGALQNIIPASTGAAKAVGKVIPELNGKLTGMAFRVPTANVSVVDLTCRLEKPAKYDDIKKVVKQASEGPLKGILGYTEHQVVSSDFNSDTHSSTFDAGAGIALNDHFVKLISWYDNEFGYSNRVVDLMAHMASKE
# Chain of Peroxisome proliferator-activated receptor gamma/Nuclear receptor coactivator 1 (P37231 whole entry): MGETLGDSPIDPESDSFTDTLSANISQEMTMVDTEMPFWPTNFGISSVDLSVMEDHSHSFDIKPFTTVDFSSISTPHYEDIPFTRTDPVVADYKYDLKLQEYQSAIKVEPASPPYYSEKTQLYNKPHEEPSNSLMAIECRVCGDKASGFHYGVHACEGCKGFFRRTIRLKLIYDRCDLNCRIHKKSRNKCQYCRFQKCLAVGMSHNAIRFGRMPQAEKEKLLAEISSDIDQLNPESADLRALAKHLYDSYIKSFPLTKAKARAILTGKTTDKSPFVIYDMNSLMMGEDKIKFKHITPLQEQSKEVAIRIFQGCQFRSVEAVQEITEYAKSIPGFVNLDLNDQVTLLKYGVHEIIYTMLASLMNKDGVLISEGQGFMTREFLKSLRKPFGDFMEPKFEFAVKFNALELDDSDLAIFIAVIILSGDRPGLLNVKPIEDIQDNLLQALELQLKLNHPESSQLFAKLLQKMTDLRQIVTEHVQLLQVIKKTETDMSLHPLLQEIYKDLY
# Chain of Peroxisome proliferator-activated receptor gamma/Nuclear receptor coactivator 1 (Q15788 whole entry, further chain): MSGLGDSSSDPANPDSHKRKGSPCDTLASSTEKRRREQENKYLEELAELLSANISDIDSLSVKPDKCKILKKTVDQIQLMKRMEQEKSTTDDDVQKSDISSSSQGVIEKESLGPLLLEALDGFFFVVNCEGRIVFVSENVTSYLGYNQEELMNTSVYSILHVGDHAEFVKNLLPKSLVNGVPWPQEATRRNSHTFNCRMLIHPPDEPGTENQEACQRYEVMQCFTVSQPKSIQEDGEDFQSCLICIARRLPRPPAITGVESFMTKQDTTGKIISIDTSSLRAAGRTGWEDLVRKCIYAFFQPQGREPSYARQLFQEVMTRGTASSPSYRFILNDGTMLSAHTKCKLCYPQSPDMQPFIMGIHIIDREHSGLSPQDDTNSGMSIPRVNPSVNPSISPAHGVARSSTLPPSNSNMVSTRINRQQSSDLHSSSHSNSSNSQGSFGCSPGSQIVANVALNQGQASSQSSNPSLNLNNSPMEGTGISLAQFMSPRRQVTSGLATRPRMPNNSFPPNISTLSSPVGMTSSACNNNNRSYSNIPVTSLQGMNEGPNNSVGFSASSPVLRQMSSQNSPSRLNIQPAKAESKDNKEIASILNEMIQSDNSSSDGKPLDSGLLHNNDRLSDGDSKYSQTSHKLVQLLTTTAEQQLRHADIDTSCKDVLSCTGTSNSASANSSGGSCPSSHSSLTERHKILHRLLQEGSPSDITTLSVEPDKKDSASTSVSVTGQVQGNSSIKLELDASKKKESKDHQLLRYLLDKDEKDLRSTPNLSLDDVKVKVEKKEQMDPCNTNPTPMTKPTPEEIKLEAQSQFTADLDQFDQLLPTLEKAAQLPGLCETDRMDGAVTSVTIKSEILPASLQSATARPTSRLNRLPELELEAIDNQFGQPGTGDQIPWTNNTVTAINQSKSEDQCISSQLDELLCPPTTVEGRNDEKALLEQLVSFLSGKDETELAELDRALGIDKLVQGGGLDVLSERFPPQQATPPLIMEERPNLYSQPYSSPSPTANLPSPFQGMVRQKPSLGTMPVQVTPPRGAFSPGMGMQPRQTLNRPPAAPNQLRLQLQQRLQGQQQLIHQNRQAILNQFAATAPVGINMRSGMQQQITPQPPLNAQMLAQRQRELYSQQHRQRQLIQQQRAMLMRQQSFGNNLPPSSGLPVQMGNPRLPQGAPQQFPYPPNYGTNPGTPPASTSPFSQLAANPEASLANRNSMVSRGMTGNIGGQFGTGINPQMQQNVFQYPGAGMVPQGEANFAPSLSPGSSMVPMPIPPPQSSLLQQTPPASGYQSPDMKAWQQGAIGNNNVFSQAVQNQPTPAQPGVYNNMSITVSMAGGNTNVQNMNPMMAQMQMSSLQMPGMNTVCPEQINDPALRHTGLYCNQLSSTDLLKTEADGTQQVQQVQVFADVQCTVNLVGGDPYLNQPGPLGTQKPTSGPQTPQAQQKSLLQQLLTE
# Chain of Peroxisome proliferator-activated receptor gamma/Nuclear receptor coactivator 2 (P37231 whole entry): as the sequence (P37231 whole entry) above
# Chain of Peroxisome proliferator-activated receptor gamma/Nuclear receptor coactivator 2 (Q15596 whole entry, further chain): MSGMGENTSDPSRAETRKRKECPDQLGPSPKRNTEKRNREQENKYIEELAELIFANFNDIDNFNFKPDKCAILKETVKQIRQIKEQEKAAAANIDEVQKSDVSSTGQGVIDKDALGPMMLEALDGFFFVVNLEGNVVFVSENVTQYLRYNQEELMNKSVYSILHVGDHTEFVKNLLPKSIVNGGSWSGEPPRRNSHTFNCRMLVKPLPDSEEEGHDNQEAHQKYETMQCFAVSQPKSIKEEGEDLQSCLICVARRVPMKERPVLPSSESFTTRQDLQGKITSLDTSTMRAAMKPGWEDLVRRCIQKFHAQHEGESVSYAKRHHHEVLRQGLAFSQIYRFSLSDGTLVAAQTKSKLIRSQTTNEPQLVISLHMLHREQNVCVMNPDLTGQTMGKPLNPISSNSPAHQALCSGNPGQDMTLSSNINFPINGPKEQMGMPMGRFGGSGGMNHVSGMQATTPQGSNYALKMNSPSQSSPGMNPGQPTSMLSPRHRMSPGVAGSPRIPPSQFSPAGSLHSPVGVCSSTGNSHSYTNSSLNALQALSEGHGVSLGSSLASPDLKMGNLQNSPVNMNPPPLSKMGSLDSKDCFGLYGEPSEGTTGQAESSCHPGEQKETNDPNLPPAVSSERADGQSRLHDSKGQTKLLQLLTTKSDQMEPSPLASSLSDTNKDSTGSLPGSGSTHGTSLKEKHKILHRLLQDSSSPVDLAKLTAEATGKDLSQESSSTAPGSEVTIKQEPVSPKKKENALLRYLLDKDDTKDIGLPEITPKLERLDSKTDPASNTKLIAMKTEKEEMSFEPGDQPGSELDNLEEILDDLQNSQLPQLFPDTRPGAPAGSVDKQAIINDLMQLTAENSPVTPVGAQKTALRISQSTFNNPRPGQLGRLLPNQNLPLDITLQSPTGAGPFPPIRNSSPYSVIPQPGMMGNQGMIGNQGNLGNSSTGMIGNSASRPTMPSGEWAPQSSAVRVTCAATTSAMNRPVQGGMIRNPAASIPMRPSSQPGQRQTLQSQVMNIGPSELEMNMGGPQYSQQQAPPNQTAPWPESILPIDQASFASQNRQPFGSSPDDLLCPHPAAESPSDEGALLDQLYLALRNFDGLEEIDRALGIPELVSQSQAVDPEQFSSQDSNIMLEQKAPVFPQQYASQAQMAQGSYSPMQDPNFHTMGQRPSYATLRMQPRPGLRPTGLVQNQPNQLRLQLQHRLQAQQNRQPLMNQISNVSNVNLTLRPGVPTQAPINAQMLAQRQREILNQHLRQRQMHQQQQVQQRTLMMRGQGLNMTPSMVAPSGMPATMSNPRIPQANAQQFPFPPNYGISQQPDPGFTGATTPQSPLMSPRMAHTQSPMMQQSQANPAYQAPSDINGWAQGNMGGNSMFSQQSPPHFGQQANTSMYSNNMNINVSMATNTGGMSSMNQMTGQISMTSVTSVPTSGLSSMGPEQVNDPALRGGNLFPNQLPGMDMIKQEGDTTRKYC
# Chain of Phospholipase A2 (P04054 whole entry): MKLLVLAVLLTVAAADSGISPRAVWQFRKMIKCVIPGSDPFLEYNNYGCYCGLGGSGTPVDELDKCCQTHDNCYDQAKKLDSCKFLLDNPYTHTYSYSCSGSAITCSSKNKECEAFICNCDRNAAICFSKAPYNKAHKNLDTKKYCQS
smiles,measurement,setting,value
O=C(Nc1sc2c(c1C(=O)O)CCCC2)c1ccc(Br)cc1,IC50,HEK293 [1],> 20 µM (inactive)
same,IC50,[2],770 nM (active)
same,IC50,Tumor necrosis factor,2.25 µM (active)
CC1CCc2c(sc(NC(=O)c3ccc(Br)cc3)c2C(=O)O)C1 (configuration not stated),IC50,HEK293 [1],4.72 µM (active)
same,IC50,[2],375 nM (active)
same,IC50,Tumor necrosis factor,6.82 µM (active)
COc1ccc(-c2cc(C(=O)Nc3cc(OC)cc(C(=O)Nc4cccc(C(F)(F)F)c4)c3)[nH]n2)cc1,IC50,[3],> 64.6 µM (inactive)
same,IC50,Melanocortin receptor 4,> 64.6 µM (inactive)
O=C(O)c1cc(-c2ccc(Cl)s2)nc2ccccc12,EC50,[4],20.7 µM (not active)
same,EC50,[5],> 79.4 µM (not active)
same,IC50,[3],> 64.6 µM (inactive)
same,EC50,[6],42.7 µM (inactive)
same,IC50,Melanocortin receptor 4,> 64.6 µM (inactive)
CC(C)(C)N1C(=O)[C@H]2[C@@H](c3ccc(Br)cc3)N3C(=O)N(c4cccc(Br)c4)C(=O)[C@@]3(Cc3ccccc3)[C@H]2C1=O,EC50,HEK293 [7],> 59.7 µM (inactive)
same,EC50,[8],2.32 µM (active)
same,EC50,HEK293 [9],> 59.7 µM (inactive)
same,EC50,[10],> 60 µM (not active)
CCOC(=O)c1cnc2ccc(OCC)cc2c1N(C)Cc1ccccc1,IC50,[3],> 64.6 µM (inactive)
same,IC50,Melanocortin receptor 4,> 64.6 µM (inactive)
COc1cccc(Cc2nnc(N3C(=O)c4ccccc4C3=O)[nH]2)c1,IC50,[11],> 100 µM (not active)
same,IC50,[12],1.19 µM (active)
N#CC1=C(N)S[C@H](C(=O)C23CC4CC(CC(C4)C2)C3)[C@H]1c1ccncc1,EC50,HEK293 [7],> 59.7 µM (inactive)
same,EC50,HEK293 [9],> 59.7 µM (inactive)
Cc1ccc(C(=O)Nc2nc(-c3ccco3)c(-c3ccco3)s2)o1,IC50,Cysteine protease ATG4B,9.23 µM (active)
same,IC50,Phospholipase A2,5.79 µM (active)
Cc1cccc(C)c1-n1nnnc1SCC(=O)c1c(N)n(C2CC2)c(=O)[nH]c1=O,EC50,[13],> 99 µM (inactive)
same,EC50,[14],> 99 µM (inactive)
CCOc1ccc(NC(=O)CNC(=O)c2nn(-c3ccc(OC)cc3)c(=O)c3ccccc23)cc1,EC50,[13],48.2 µM (inactive)
same,EC50,[14],> 99 µM (inactive)
COc1ccc(F)c(-c2nc(CN3CCN(c4ncnc5ccccc45)CC3)c(C)o2)c1,IC50,HEK293 [1],13.7 µM (active)
same,IC50,[2],3930 nM (active)
same,IC50,Tumor necrosis factor,3.8 µM (active)
CCn1c(=O)cc(OCC(=O)NC(C)c2ccc3c(c2)OCCO3)c2ccccc21 (configuration not stated),IC50,[15],15.8 µM (active)
CCOC(=O)c1ccc(/N=c2\sc(C(=O)OC)cc(=O)n2Cc2ccco2)cc1,EC50,[16],7.5 µM (active)
same,EC50,HEK293 [7],> 59.6 µM (inactive)
same,EC50,[17],16.8 µM (active)
same,IC50,[3],> 64.5 µM (inactive)
same,EC50,HEK293 [9],> 59.6 µM (inactive)
same,IC50,Melanocortin receptor 4,> 7.17 µM (active)
same,EC50,[18],5.88 µM (active)
CCOC(=O)c1c(NC(=O)CSc2nnc(-c3c[nH]c4ccccc34)n2CCOC)sc2c1CCCCC2,EC50,[16],21.3 µM (active)
same,EC50,HEK293 [7],> 59.7 µM (inactive)
same,EC50,HEK293 [9],> 59.7 µM (inactive)
same,EC50,[18],26.3 µM (active)
Cn1c(=O)c2c(ncn2CC(=O)Nc2nc(-c3ccccc3Cl)cs2)n(C)c1=O,EC50,[13],> 99 µM (inactive)
same,EC50,[14],> 99 µM (inactive)
CCOC(=O)C1CCCN(C(=O)c2csc(-c3ccc4c(c3)CCO4)n2)C1 (configuration not stated),IC50,[15],13.2 µM (active)
